Target: T1, P2X1 receptor (Homo sapiens, UniProt P51575)
T1 construct: made in house
T1 sequence (P51575 1-399): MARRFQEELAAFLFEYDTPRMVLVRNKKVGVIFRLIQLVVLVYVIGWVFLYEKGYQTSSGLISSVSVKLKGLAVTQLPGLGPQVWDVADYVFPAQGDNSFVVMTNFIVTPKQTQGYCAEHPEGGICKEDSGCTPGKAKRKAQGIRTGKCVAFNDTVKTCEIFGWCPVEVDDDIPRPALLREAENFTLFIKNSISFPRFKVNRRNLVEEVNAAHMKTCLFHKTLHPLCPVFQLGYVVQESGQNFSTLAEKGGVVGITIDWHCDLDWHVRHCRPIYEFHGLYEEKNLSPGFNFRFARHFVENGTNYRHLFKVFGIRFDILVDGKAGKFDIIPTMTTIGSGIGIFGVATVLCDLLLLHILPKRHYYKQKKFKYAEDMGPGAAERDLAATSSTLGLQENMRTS
Assay: Single molecule stochastic binding of ATP* to purified P2X1 reconstituted in lipid bilayers
Details: corrected for photophysical blinking and photochemical bleach; compared with bulk measurements
From the text: Plasmids: A FLAG-tagged human P2X1 subunit construct was generated by fusion PCR, and cloned together with an IRES-IFP1.4 fusion PCR product as a three-point ligation into the Mlul/Spel digested pLV-T backbone (see Shu, X.; Royant, A.; Lin, M. Z.; Aguilera, T. A.; Lev-Ram, V.; Steinbach, P. A.; Tsien, R. Y. Science 2009, 324, 804; and Marquis, J.; Kampfer, S. S.; Angehrn, L.; Schumperli, D. Gene therapy 2009, 16, 70.)
Protein Purification: HEK 293T cells stably expressing the FLAG-P2X1 receptor were grown as monolayers in T300 plates. At a density of 80%, cells were washed once with phosphate buffered saline (PBS (mM); 0.1 NaCl, 2.0 Na2HPO4, 0.54 KCl, 0.4 KH2PO4, pH 7.4), mechanically detached into PBS, collected by centrifugation at 500 g for 5 min, snap frozen in liquid N2 and stored at −70° C. until needed. After defrosting, cells were diluted with 2 mL Tris-EDTA (50 mM Tris-HCl, 0.5 mM EDTA, pH 7.5) containing Halt Protease Inhibitor (Pierce, Thermo Scientific, IL, USA) and homogenized with a 5 mL cell-douncer, followed by trituration through 21-gauge and 27-gauge needles. […]

For “2′/3′-O-(2-Aminoethyl-carbamoyl)-Adenosine-5′-triphosphate, labelled with ATTO-700 [ATP*]”, the “binding coefficients from single receptor binding data” value was “statistically identical to overall bulk measurements”.
